Source: patent publication US20230015823A1, “METHODS OF ADMINISTERING VOXELOTOR” (Global Blood Therapeutics, Inc., priority 2019, published 2023)
Where two headings read alike, the source gives them in different places.

Key:
[1] = Phase 1 study of a single oral dose of voxelotor in subjects with hepatic impairment: whole blood and plasma PK; assay type: in vivo, human; conditions: for half-life / Tmax / AUC(0-t) / AUC(0-inf) / Cmax / Vd/F: human, po; for half-life: read-out: t1/2, mean (converted); for Tmax: read-out: tmax, median (converted); for AUC(0-inf): read-out: AUCinf, GM (converted); for Cmax: read-out: Cmax, GM (converted); for Vd/F: read-out: Vz/F, GM (converted)
Method: A Phase 1, open-label study was performed to characterize pharmacokinetics (PK) and safety of a single oral dose of voxelotor in subjects with hepatic impairment. The study was to assess the effects of mild, moderate, or severe hepatic impairment on the PK of a single oral dose of voxelotor, to evaluate the safety and tolerability of a single oral dose of voxelotor in subjects with mild, moderate, or severe hepatic impairment, as well as to establish potential dose adjustment guidance based upon the degree of hepatic insufficiency. […] This study was designed to assess the effects of mild, moderate, or severe hepatic impairment on the PK of a single oral dose of voxelotor. Routine safety assessments (AE monitoring, vital signs, physical examinations, clinical laboratory tests, and ECGs) were performed. Eligible subjects received a single oral dose of voxelotor 1500 mg (5×300-mg capsules) on Day 1 (for normal hepatic function, mild and moderate hepatic impairment). […] No food was allowed for at least 4 hours postdose. No water or any type of liquid was allowed for 1 hour before dosing through 1-hour postdose with the exception of water consumed for dosing. Adverse events and concomitant medication use were monitored throughout the study. Safety assessments, including physical examinations, vital signs assessments, 12-lead ECGs, and clinical laboratory tests, were performed. Whole blood and plasma concentrations of voxelotor were determined using validated assays. […] Louis, Mo.) and actual sampling times. The following PK parameters were determined. To assess the effect of hepatic impairment on the PK of voxelotor, a linear mixed-effect model was fitted to the log-transformed values of whole blood and plasma Cmax, AUCt, and AUCinf. The model included hepatic impairment group as a fixed effect and age and weight as covariates. Point estimates and 90% CIs for hepatic function group differences (mild, moderate, and severe hepatically-impaired subjects [test] versus the normal hepatic function subjects [control]) on the log scale were exponentiated to obtain estimates for GM ratios on the original scale. Voxelotor whole blood and plasma concentrations were measured using a validated liquid chromatography-mass spectrometry method. The lower limit of assay quantitation for voxelotor was 10.0 ng/mL for whole blood and 5.00 ng/mL in plasma.

[2] = target: OAT3 (Homo sapiens, UniProt Q8TCC7); assay: In vitro transporter studies: OAT3; assay type: in vitro ADME
Chain of OAT3 (Q8TCC7 whole entry): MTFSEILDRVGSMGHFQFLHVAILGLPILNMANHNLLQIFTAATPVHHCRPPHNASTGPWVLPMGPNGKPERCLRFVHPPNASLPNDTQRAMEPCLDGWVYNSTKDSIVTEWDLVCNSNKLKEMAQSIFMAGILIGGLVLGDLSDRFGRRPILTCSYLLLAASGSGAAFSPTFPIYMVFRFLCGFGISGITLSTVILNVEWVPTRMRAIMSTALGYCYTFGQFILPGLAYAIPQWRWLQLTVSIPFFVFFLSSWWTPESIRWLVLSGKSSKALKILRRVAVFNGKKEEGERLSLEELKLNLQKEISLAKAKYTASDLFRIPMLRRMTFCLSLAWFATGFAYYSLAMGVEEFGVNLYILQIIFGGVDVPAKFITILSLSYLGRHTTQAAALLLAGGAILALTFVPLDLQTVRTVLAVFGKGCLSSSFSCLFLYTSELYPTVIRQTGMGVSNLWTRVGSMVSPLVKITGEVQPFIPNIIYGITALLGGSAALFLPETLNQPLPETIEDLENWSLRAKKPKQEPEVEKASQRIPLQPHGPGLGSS

[3] = whole blood, 600 mg, whole blood, severe hepatic impairment, 600 mg single oral dose
[4] = whole blood, 1500 mg, whole blood, mild hepatic impairment, 1500 mg single oral dose
[5] = whole blood, 1500 mg, whole blood, moderate hepatic impairment, 1500 mg single oral dose
[6] = whole blood, 1500 mg, whole blood, normal hepatic function, 1500 mg single oral dose
[7] = plasma, Mild (Test) vs Normal (Ref)
[8] = plasma, Moderate (Test) vs Normal (Ref)
[9] = plasma, Severe (Test, adjusted for dose) vs Normal (Ref)
[10] = severe hepatic impairment, Cmax adjusted for dose
[11] = whole blood, Mild (Test) vs Normal (Ref)
[12] = whole blood, Moderate (Test) vs Normal (Ref)
[13] = whole blood, Severe (Test, adjusted for dose) vs Normal (Ref)

## CC(C)n1nccc1-c1ncccc1COc1cccc(O)c1C=O [voxelotor, 2-hydroxy-6-((2-(1-isopropyl-1H-pyrazol-5-yl)pyridin-3-yl)methoxy)benzaldehyde]
[1]; [3]
  half-life: 111 h
  Tmax: 24 h
[1]; whole blood, 1500 mg, whole blood, mild hepatic impairment, 1500 mg single oral dose, read-out: AUC0-96, GM (converted)
  AUC(0-t): 5160 µg·h/mL
[1]; [4]
  AUC(0-inf): 8230 µg·h/mL
  Cmax: 73.6 µg/mL
  Vd/F: 15.8 L
  half-life: 60.1 h
  Tmax: 24 h
[1]; whole blood, 1500 mg, whole blood, mild hepatic impairment, 1500 mg single oral dose, read-out: AUCt, GM (converted)
  AUC(0-t): 8190 µg·h/mL
[1]; whole blood, 1500 mg, whole blood, moderate hepatic impairment, 1500 mg single oral dose, read-out: AUC0-96, GM (converted)
  AUC(0-t): 4660 µg·h/mL
[1]; [5]
  AUC(0-inf): 8360 µg·h/mL
  Cmax: 63.8 µg/mL
  Vd/F: 20.6 L
  half-life: 79.5 h
  Tmax: 24 h
[1]; whole blood, 1500 mg, whole blood, moderate hepatic impairment, 1500 mg single oral dose, read-out: AUCt, GM (converted)
  AUC(0-t): 8320 µg·h/mL
[1]; whole blood, 1500 mg, whole blood, normal hepatic function, 1500 mg single oral dose, read-out: AUC0-96, GM (converted)
  AUC(0-t): 4270 µg·h/mL
[1]; [6]
  AUC(0-inf): 6980 µg·h/mL
  Cmax: 60.9 µg/mL
  Vd/F: 19.6 L
  Tmax: 24 h
[1]; whole blood, 1500 mg, whole blood, normal hepatic function, 1500 mg single oral dose, read-out: AUCt, GM (converted)
  AUC(0-t): 6950 µg·h/mL
[1]; mild hepatic impairment
  plasma Cmax, higher than normal hepatic function: 18%
  whole blood Cmax, higher than normal hepatic function: 19%
[1]; mild hepatic impairment (Child Pugh A)
  AUC in whole blood higher compared to normal hepatic function: 14%
[1]; moderate hepatic impairment
  plasma Cmax, higher than normal hepatic function: 51%
  whole blood Cmax, higher than normal hepatic function: 6%
[1]; moderate hepatic impairment (Child Pugh B)
  AUC in whole blood higher compared to normal hepatic function: 15%
[1]; [7]
  AUCinf, Ratio of Geometric LS Mean (Test to Reference): 1.093
  AUCt, Ratio of Geometric LS Mean (Test to Reference): 1.089
  Cmax, Ratio of Geometric LS Mean (Test to Reference): 1.177
[1]; [8]
  AUCinf, Ratio of Geometric LS Mean (Test to Reference): 1.180
  AUCt, Ratio of Geometric LS Mean (Test to Reference): 1.207
  Cmax, Ratio of Geometric LS Mean (Test to Reference): 1.510
[1]; [9]
  AUCinf, Ratio of Geometric LS Mean (Test to Reference): 1.932
  AUCt, Ratio of Geometric LS Mean (Test to Reference): 1.907
  Cmax, Ratio of Geometric LS Mean (Test to Reference): 1.445
[1]; plasma, mild hepatic impairment, 1500 mg single oral dose
  CL/F, GM: 76.69 L/h
[1]; plasma, moderate hepatic impairment, 1500 mg single oral dose
  CL/F, GM: 56.14 L/h
[1]; plasma, normal hepatic function, 1500 mg single oral dose
  CL/F, GM: 77.50 L/h
[1]; plasma, severe hepatic impairment, 600 mg single oral dose
  CL/F, GM: 73.81 L/h
[1]; severe hepatic impairment (Child Pugh C)
  AUC in whole blood higher compared to normal hepatic function: 90%
[1]; [10]
  plasma Cmax, higher than normal hepatic function: 45%
  whole blood Cmax, higher than normal hepatic function: 39%
[1]; [11]
  AUCinf, Ratio of Geometric LS Mean (Test to Reference): 1.141
  AUCt, Ratio of Geometric LS Mean (Test to Reference): 1.140
  Cmax, Ratio of Geometric LS Mean (Test to Reference): 1.187
[1]; [12]
  AUCinf, Ratio of Geometric LS Mean (Test to Reference): 1.151
  AUCt, Ratio of Geometric LS Mean (Test to Reference): 1.149
  Cmax, Ratio of Geometric LS Mean (Test to Reference): 1.056
[1]; [13]
  AUCinf, Ratio of Geometric LS Mean (Test to Reference): 1.902
  AUCt, Ratio of Geometric LS Mean (Test to Reference): 1.867
  Cmax, Ratio of Geometric LS Mean (Test to Reference): 1.391
[1]; whole blood, mild hepatic impairment, 1500 mg single oral dose
  CL/F, GM: 70.182 L/h
[1]; whole blood, moderate hepatic impairment, 1500 mg single oral dose
  CL/F, GM: 60.179 L/h
[1]; whole blood, normal hepatic function, 1500 mg single oral dose
  CL/F, GM: 70.215 L/h
[1]; whole blood, severe hepatic impairment, 600 mg single oral dose
  CL/F, GM: 70.110 L/h
[2]
  inhibition of OAT3: not an inhibitor
